# Source: patent US7718764B2, “Biologically active peptide [sequence] derivatives” (CMS Peptides Patent Holding Company Limited, priority 2004, dated 2010)
# Marks after values point to notes of the source that are not given here.
# Legend:
# Masugi nephritis rabbits [1] = experiment: Masugi nephritis in rabbits: urine protein; assay type: in vivo; settings: 0.1 mg/kg/day i.v.
# Description: (§1) Twenty-two healthy rabbits were randomized into 5 groups: peptide (107.3 μg/kg/day and 58.5 μg/kg/day, 4 rabbits per group), dexamethasone (0.1 mg/kg/day, 4 rabbits), saline treatment (1 ml/day, 7 rabbits), and normal healthy (3 rabbits). Before the establishment of a disease state in the rabbits, measurements of serum BUN, creatinine, and urine protein over 24 hours were taken for each rabbit. If there was no abnormality in these measurements, the Masugi nephritis model was established in experimental rabbits by intravenous injection of sheep anti-rabbit renal cortex antiserum via the auricular vein, 0.5 ml per injection, one injection every 30 minutes, for a total of 4 injections per rabbit. The normal healthy (control) rabbit group was injected with saline in the same manner. Intravenous administration of the test substances via the auricular vein was started on the day after the injection of the antiserum, once per day, 1 ml per injection, for 30 consecutive days.
# Urine was collected from each rabbit over a 24 hour period once per week and the protein content determined by the sulfosalicylic acid method.
# (§2) Statistical significance was determined by the t-test of the SPSS software.
# Masugi nephritis rabbits [2] = experiment: Masugi nephritis in rabbits: clearance of sheep anti-rabbit renal cortex IgG antibody (glomerular immunofluorescence); assay type: in vivo; settings: 0.1 mg/kg/day i.v. 30 days, saline treatment 8.7 ± 0.9
# Description: as §1, with “Before” for “Twenty-two healthy rabbits were randomized into 5 groups: peptide (107.3 μg/kg/day and 58.5 μg/kg/day, 4 rabbits per group), dexamethasone (0.1 mg/kg/day, 4 rabbits), saline treatment (1 ml/day, 7 rabbits), and normal healthy (3 rabbits). Before”
# For observation of the effects of peptides on the clearance of sheep anti-rabbit renal cortex IgG antibody from Masugi nephritis rabbits, on the day after the last test substance administration, the rabbits were sacrificed by suffocation and the right kidney was extirpated, freeze-edged and then immunofluorescently stained for the presence of sheep IgG. The fluorescence-positive area of each glomerulus was counted. Thirty glomeruli per rabbit were examined and the average positive area per glomerulus was calculated.
# as §2
# mice T-lymphocyte [3] = experiment: Mice T-lymphocyte transformation in vivo (i.p. dosing 20 days, spleen cells + ConA, MTT, stimulation index); design: species or system BALB/c mice; settings: for Effect on mice T-lymphocyte transformation in vivo: at suitable dosages, vs saline control P<0.05
# Description: Animals were randomized into two peptide groups (200 μg/kg/day and 50 μg/kg/day), Cyclosporine A group (10 mg/kg/day), and saline group (0.5 ml/day). Each group contained 10 mice, in which half were female and half were male. All test substances were dissolved in 0.5 ml saline and administered intraperitoneally once per day for 20 days. T-lymphocyte transformation and NK cell activity were examined on the day immediately following the last injection. The day after the last test substance administration, the mice were sacrificed by cervical dislocation. The spleens were isolated aseptically and manually dispersed in 10% FBS RPMI-1640 solution using an injection needle. The dispersed cell suspension was further sieved through a 100 gauge 150 μm diameter stainless steel sieve and adjusted to 4×10^6/ml. The cell suspensions were inoculated onto a 96 wells cell culture plate, 100 μl/well with the following design. Assay wells: 100 μl cell suspension+100 μl ConA Control wells: 100 μl cell suspension+100 μl RPMI-1640 Four assay and four control wells were set up for each animal. The plates were incubated at 37° C., 5% CO2 for 68 hours. MTT was then added and the plates read at OD 570 nm referenced at 630 nm with ELISA reader. Stimulation Index SI (%)=(assay well OD/control well OD)×100%.
# mice NK cell = experiment: Mice NK cell activity in vivo (i.p. dosing 20 days, spleen effector cells vs YAC-1 target cells, MTT); design: species or system BALB/c mice
# Description: Animals were randomized into two peptide groups (200 μg/kg/day and 50 μg/kg/day), Cyclosporine A group (10 mg/kg/day), and saline group (0.5 ml/day). Each group contained 10 mice, in which half were female and half were male. All test substances were dissolved in 0.5 ml saline and administered intraperitoneally once per day for 20 days. T-lymphocyte transformation and NK cell activity were examined on the day immediately following the last injection. YAC-1 target cells were brought to log phase and adjusted to a density of 1×10^5/ml. Mice spleen cells prepared in section 2.2.2 above were adjusted to a density of 4×10^6/ml and used as effector cells. The cell suspensions were inoculated onto 96 wells cell culture plates as follows: Effector cell wells: 100 μl spleen cell suspension+100 μl RPMI-1640 Assay wells: 100 μl spleen cell suspension+100 μl YAC-1 cell suspension Target cell wells: 100 μl YAC-1 cell suspension+100 μl RPMI-1640 Three assay wells and three effector cell wells were set up for each animal, and 12 target cell wells were set up per cell culture plate. The plates were incubated at 37° C., 5% CO2 for 4 hours, then MTT was added and the plates were read at OD 570 nm referenced at 630 nm with ELISA reader. NK cell activity (%)=1−[(assay wells OD−effector cell wells OD)/target cell wells OD]×100%
# S180 sarcoma cells = experiment: Growth of KM mice-transplanted S180 sarcoma cells in vivo; design: unit not given here; settings: Table 12; for Sarcoma volume: V=(1/6)πABC, saline 1.20 ± 0.28; for Sarcoma weight: saline 1.87 ± 0.52
# Description: S180 sarcoma cells were transplanted intraperitoneally into KM mice for 6-8 days and the ascites aseptically collected. The cell concentration was adjusted to 1×10^7 per ml with 10% FBS RPMI-1640, and 0.2 ml cell suspension was injected through the armpit into each KM mice for developing the sarcoma bearing mice model. […] Intraperitoneal injection of test substances started on the day immediately after tumor transplantation and continued once per day for 20 consecutive days.
# On the day after the last test substance administration, the sarcomas were removed from the mice and weighed. The diameters of each sarcoma on the three planes (A, B, C) were measured by a vernier caliper. The volume of the sarcoma was calculated by the formula: V=(⅙)πABC.
# mice T-lymphocyte [4] = experiment: Mice T-lymphocyte transformation induced by ConA in vitro (spleen cells, MTT); assay type: cell-based, BALB/c mice; settings: for OD: Table 2, ConA 5 μg/ml, 68 hrs
# Description: The spleens from healthy mice were isolated aseptically and manually dispersed in 10% FBS RPMI-1640 solution using an injection needle. The dispersed cell suspension was further sieved through a 100-gauge 150 μm diameter stainless steel sieve. The spleen cell suspension was adjusted to a density of 4×10^6/ml and was aliquoted onto 96-well cell culture plates at 100 μl/well. Peptides were dissolved in plain RPMI-1640. The design of the groupings was as given below.
# Peptide group: 100 μl working peptide solution+75 μl spleen cell suspension+25 μl ConA working solution.
# ConA control group: 100 μl RPMI-1640+75 μl spleen cell suspension+25 μl ConA working solution.
# Negative control group: 125 μl RPMI-1640+75 μl spleen cell suspension.
# The final concentration of ConA in the well was 5 μg/ml. The final concentrations of peptides in the well were 80 μg/ml, 16 μg/ml, 3.2 μg/ml, 0.64 μg/ml, and 0.128 μg/ml. Each peptide group contained three parallel wells, and eight or twelve wells for the control groups. The cells were incubated for 68 hrs at 37° C., 5% CO2. MTT method was used to obtain a reading of OD570 nm of each well referenced at 630 nm on an ELISA reader.
# [5] = at suitable dosage, vs saline control P<0.05
substance,measurement,setting,value
Dexamethasone Sodium Phosphate [reference compound],proteinuria Week 0,"Masugi nephritis rabbits [1]; Week 0, saline treatment 11.72 ± 3.18",9.48 ± 8.46 mg/dL
same,proteinuria Week 1,"Masugi nephritis rabbits [1]; Week 1, saline treatment 122 ± 91",29 ± 12 mg/dL
same,proteinuria Week 2,"Masugi nephritis rabbits [1]; Week 2, saline treatment 160 ± 138",13.6 ± 6.3 mg/dL
same,proteinuria Week 3,"Masugi nephritis rabbits [1]; Week 3, saline treatment 145 ± 33",13.7 ± 3.1 mg/dL
same,proteinuria Week 4,"Masugi nephritis rabbits [1]; Week 4, saline treatment 157 ± 71",25 ± 19 mg/dL
same,Positive area count/glomerulus,Masugi nephritis rabbits [2],7.5 ± 1.0
VAPEEHPTLLT [CMS-010.14],SI,"mice T-lymphocyte [3]; Table 7, 50 μg/kg/d i.p. 20 days, saline 2.96 ± 0.61",2.12 ± 0.51
same,Effect on mice T-lymphocyte transformation in vivo,mice T-lymphocyte [3],suppress
same,NK cell activity (%),"mice NK cell; Table 9, 50 μg/kg/day i.p. 20 days, saline 55.3 ± 6.1",75.3 ± 9.0 %
same,NK cell activity (%),"mice NK cell; Table 9, 200 μg/kg/day i.p. 20 days, saline 55.3 ± 6.1",43.1 ± 13.7 %
same,Effect on mice NK cell activity in vivo (enhancement),mice NK cell; [5],enhance
same,Sarcoma volume,S180 sarcoma cells; 250 μg/kg/day,0.29 ± 0.21
same,Sarcoma weight,S180 sarcoma cells; 250 μg/kg/day,0.44 ± 0.30*^@
same,Sarcoma volume,S180 sarcoma cells; 500 μg/kg/day,0.56 ± 0.53
same,Sarcoma weight,S180 sarcoma cells; 500 μg/kg/day,0.67 ± 0.70
APLNPK [CMS-010.24],SI,"mice T-lymphocyte [3]; Table 4, 50 μg/kg/day i.p. 20 days, saline 3.63 ± 0.69",2.40 ± 0.31
same,Effect on mice T-lymphocyte transformation in vivo,mice T-lymphocyte [3],suppress
same,NK cell activity (%),"mice NK cell; Table 8, 50 μg/kg/day i.p. 20 days, saline 76.0 ± 4.3",56.0 ± 6.0 %
same,NK cell activity (%),"mice NK cell; Table 8, 200 μg/kg/day i.p. 20 days, saline 76.0 ± 4.3",69.0 ± 7.4 %
same,Effect on mice NK cell activity in vivo (suppression),mice NK cell; [5],suppress
same,Sarcoma volume,S180 sarcoma cells; 250 μg/kg/day,0.36 ± 0.30
same,Sarcoma weight,S180 sarcoma cells; 250 μg/kg/day,0.61 ± 0.39
same,Sarcoma volume,S180 sarcoma cells; 500 μg/kg/day,0.62 ± 0.47
same,Sarcoma weight,S180 sarcoma cells; 500 μg/kg/day,1.20 ± 0.79
VANPK [CMS-010.105],OD,"mice T-lymphocyte [4]; peptide 0.64 μg/ml, ConA control 0.467 ± 0.043",0.386 ± 0.008
same,OD,"mice T-lymphocyte [4]; peptide 80 μg/ml, MTT OD570 nm ref 630 nm, ConA control 0.467 ± 0.043, negative control 0.134 ± 0.011",0.407 ± 0.019
same,Effect on mice T-lymphocyte transformation induced by ConA in vitro,"mice T-lymphocyte [4]; at suitable concentrations, vs ConA positive control P<0.05",suppress
